Source: article PMC5865651, “Novel inhibitor candidates of TRPV2 prevent damage of dystrophic myocytes and ameliorate against dilated cardiomyopathy in a hamster model” (Oncotarget, 2018)

What was measured:
J2N-k myocytes = assay: Stretch-induced CK release from J2N-k myocytes; format: cell-based, hamster; conditions: 30 μM, 30 min pretreatment, cyclic stretch 20% elongation 1 h
Experimental: Creatine phosphokinase (CK) activity in the medium was determined using an in vitro colorimetric assay kit (CK Test Kit; Wako Pure Chemical Industries, Ltd., Osaka, Japan) according to the manufacturer's protocol The cTN-I level in the serum was measured, while quantitative immunoblotting and immunocytochemistry were performed as previously described. Protein concentration was measured using the bicinchoninic acid assay (Pierce Chemical Co., Rockford, IL, USA) with bovine serum albumin as the standard. All histochemical and physiological analyses were performed by investigators blinded to the drug treatments. Unless otherwise stated, results are presented as the mean ± SD of at least 5 determinations. The unpaired Student's t-test and one-way ANOVA followed by Dunnett's test were used to analyse the data. Values of P < 0.05 (indicated as asterisks in the figures) were considered statistically significant. All cellular measurements were repeated at least 5 times. Representative data are shown.

human TRPV2 (hTRPV2) = target: T1, human TRPV2 (hTRPV2) (Homo sapiens, UniProt Q9Y5S1); assay: CaCl2 (5 mM)-induced increase in [Ca2+]i in CHO cells expressing hTRPV2; format: cell-based; parameters: expressed in transfected cells; host or cells: CHO cells; conditions: compound 15 μM
T1 sequence (Q9Y5S1 1-764): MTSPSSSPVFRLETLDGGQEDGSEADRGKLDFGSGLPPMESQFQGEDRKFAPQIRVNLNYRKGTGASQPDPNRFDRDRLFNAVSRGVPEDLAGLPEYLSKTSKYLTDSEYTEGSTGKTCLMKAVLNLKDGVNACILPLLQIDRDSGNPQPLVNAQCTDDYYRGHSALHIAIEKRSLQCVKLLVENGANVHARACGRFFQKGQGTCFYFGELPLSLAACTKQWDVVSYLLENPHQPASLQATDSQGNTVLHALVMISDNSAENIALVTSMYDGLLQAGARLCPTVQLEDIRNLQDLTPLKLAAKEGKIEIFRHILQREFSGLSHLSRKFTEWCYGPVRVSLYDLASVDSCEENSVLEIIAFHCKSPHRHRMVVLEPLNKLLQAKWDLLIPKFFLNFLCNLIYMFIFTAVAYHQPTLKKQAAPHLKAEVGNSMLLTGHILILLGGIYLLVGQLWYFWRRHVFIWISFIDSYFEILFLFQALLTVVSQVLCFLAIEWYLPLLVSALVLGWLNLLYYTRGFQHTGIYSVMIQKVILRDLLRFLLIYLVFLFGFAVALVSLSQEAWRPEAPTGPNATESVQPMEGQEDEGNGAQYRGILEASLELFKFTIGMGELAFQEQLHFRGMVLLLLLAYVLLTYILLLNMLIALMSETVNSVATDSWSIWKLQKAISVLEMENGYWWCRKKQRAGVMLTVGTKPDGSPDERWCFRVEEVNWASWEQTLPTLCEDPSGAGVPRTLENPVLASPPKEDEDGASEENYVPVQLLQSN
Experimental: Figure 4 Effects of inhibitor compounds on the Ca^2+ response of cells expressing hTRPV1, hTRPV2, or hTRPC1 (A) Effect of compounds on CaCl2 (5 mM)-induced peak fluorescence ratio in non-transfected (nt) or hTRPV2-transfected CHO cells. The extracellular Ca^2+-dependent increase in the ratio of fura-2 fluorescence intensity at 340/380 nm (ΔR, 2 min after addition of chemicals) was plotted as ΔR/R0 after normalising to the initial fluorescence ratio (R0). […] Solid bar, no inhibitor. (B) Effect of compounds on 2-APB (1 mM)/high extracellular CaCl2-induced peak fluorescence ratio in nt or hTRPV1-transfected HEK293 cells. […] (C) Effect of compounds on store-operated Ca^2+ entry in nt or hTRPC1-transfected HEK293 cells. Cells were treated with the endoplasmic reticulum Ca^2+ pump inhibitor thapsigargin and exposed to CaCl2 and the indicated compounds. ΔR was measured 2 min after the addition of CaCl2. […]
[Ca^2+]i was measured by a ratiometric fluorescence method as previously described. […] Fura-2-AM fluorescence was measured using an Aquacosmos fluorescence image processor (Hamamatsu Photonics, Hamamatsu, Japan). The time-course data are presented as the ratio of fluorescence at an excitation wavelength of 340 nm to that at 380 nm. The increase in the fluorescence ratio induced by the TRPV2 agonist 2-APB or high extracellular Ca^2+ (ΔR) was normalized to the initial ratio (R0) before stimulation. […]

[1] = system: dystrophic myocytes from J2N-k hamsters; assay: Ca2+ response in cultured myocytes from dystrophic J2N-k hamsters; format: cell-based, hamster; conditions: compound 15 μM

COc1cc(/C=C(\C#N)C(=O)Nc2ccccc2C(=O)O)cc(Cl)c1OC [A3, 2-[(2E)-3-(3-Chloro-4,5-dimethoxyphenyl)-2-cyanoprop-2-enoylamino]benzoic acid]
reduction of stretch-induced CK release (J2N-k myocytes): up to 70% | effect on Ca2+ influx in response to CaCl2 exposure (human TRPV2 (hTRPV2)): markedly inhibited

COc1cccc(OCCn2cc(/C=N/n3cnnc3)c3ccccc32)c1 [B6, 1-{2-[3-((1E)-2-(1,2,4-triazol-4-yl)-2-azavinyl)indolyl]ethoxy}-3-methoxybenzene]
effect on Ca2+ influx in response to CaCl2 exposure (human TRPV2 (hTRPV2)): not

CCN1C=CC(=CC=C(C=Cc2cc[n+](CC)c3ccccc23)c2cc[n+](CC)c3ccccc23)c2ccccc21.[I-].[I-] [lumin, 4,4′-[3-[2-[1-ethyl-4(1H)-quinolinylidene]ethylidene]-1-propene-1,3-diyl]bis(1-ethylquinolinium) diiodide]
effect on high extracellular Ca2+ (5 mM)-induced increase in [Ca2+]i [1]: inhibited | effect on 2-APB-induced increase in [Ca2+]i ([1]; 2-APB 0.5 mM, CaCl2 5 mM, pH 6.5): inhibited
